How the values were obtained:
[1] = Subject Global Evaluations in Phase III open-label multi-day study of IV acetaminophen (4 point categorical rating scale); assay type: in vivo, human; conditions: for Subject Global Assessment, level of satisfaction with the study treatments, difference versus control group: any of the assessment points
Protocol: A Phase III, open-label, prospective, multi-center, repeated dose, randomized, multi-day safety and efficacy study was conducted in 213 subjects. The subjects were randomized as follows: 92 subjects to a q6 group (1 g of IV acetaminophen every 6 hours), 91 subjects to a q4 group (650 mg of IV acetaminophen every 4 hours), and 28 subjects to a standard of care control group, which could include oral acetaminophen, but no IV acetaminophen. […] The primary endpoint was an assessment of safety using spontaneous adverse event reporting and daily liver enzymes. Efficacy evaluations were also performed. All analyses of efficacy were conducted on the modified intent-to-treat population separately for the two indications (acute pain and fever). Subjects' Global Evaluations were summarized descriptively (n, mean, SD, median, minimum, and maximum) by treatment group for each study day and for overall assessments. Summary statistics were also provided for each site. Comparisons of efficacy endpoints between the following pairs of treatment groups were investigated using two-sided tests at the 5% level of significance: • IV acetaminophen 1 g versus IV acetaminophen 650 mg • IV acetaminophen 1 g versus standard of care treatment • IV acetaminophen 650 mg versus standard of care treatment A one-way analysis of variance (ANOVA) model with treatment group as the factor was used to test the treatment difference between these pairs. All groups were included in this analysis model. The p-values from the ANOVA model were presented along with the summary statistics. […] A one-way ANOVA model with treatment group as the factor was used to test the treatment difference between each treatment pair: • IV acetaminophen 1 g q6h versus IV acetaminophen 650 mg […] • IV acetaminophen 1 g q6h versus standard of care treatment (Control) • IV acetaminophen 650 mg […] versus standard of care treatment (Control) All endpoints were tested at the 0.05 significance level (two-sided).

[2] = Safety assessment in Phase III open-label multi-day study (adverse event reporting, daily liver enzymes, laboratory, vital signs); assay type: in vivo, human; conditions: for Tolerability: up to 5 days
Protocol: A Phase III, open-label, prospective, multi-center, repeated dose, randomized, multi-day safety and efficacy study was conducted in […] subjects. The subjects were randomized as follows: 92 subjects to a q6 group (1 g of IV acetaminophen every 6 hours), 91 subjects to a q4 group (650 mg of IV acetaminophen every 4 hours), and 28 subjects to a standard of care control group, which could include oral acetaminophen, but no IV acetaminophen. Subjects who completed 5 days of study treatment included 63 in the q6 group, 59 in the q4 group and 26 in the control group. The primary endpoint was an assessment of safety using spontaneous adverse event reporting and daily liver enzymes. Efficacy evaluations were also performed.
All analyses of safety were conducted on the safety population.
Percentage of subjects withdrawn due to adverse event, percentage of subjects with adverse events (AEs) or serious adverse events (SAEs), and percentage of subjects with clinically meaningful changes in laboratory parameters were summarized.
All adverse events and serious adverse events were coded according to the Medical Dictionary for Regulatory Activities (MedDRA), Version 10.0. […] Liver function test abnormalities were graded using the Common Terminology Criteria for Adverse Events.
For each clinical laboratory parameter, descriptive statistics (n, mean, standard deviation, median, and range) were tabulated for baseline and final values. Change from baseline was tabulated for those subjects who had both baseline and final values. Liver function tests were also evaluated using values that were normalized to the upper limit of normal values for the local laboratory.
A shift table was prepared to present the shift in baseline clinical laboratory values that were clinically relevantly high or low at baseline and/or final measurement.
Descriptive statistics (n, mean, standard deviation, median, and range) were tabulated for changes in vital signs from baseline to final measurement.

Question: For CC(=O)Nc1ccc(O)cc1 [IV acetaminophen, acetaminophen], which “Subject Global Assessment, level of satisfaction with the side effects related to study treatments, mean rating” value (from here on “Subject Global Assessment, level … mean rating”) ([1]; 650 mg q4h IV, day 4, scale 0-3, control 2.2, p=0.1162) is on record?
Answer: 2.5

Question: What about the “Subject Global Assessment, level … mean rating” value ([1]; 650 mg q4h IV, day 5 24 h lookback, scale 0=poor to 3=excellent, control 2.0, p=0.0167) of the same compound?
Answer: 2.4

Question: What about the “Subject Global Assessment, level … mean rating” value ([1]; 650 mg q4h IV, end of day 5 prior to discharge 24 h lookback, scale 0-3, control 2.0, p=0.0129) of the same compound?
Answer: 2.4

Question: What about the “Efficacy conclusion based upon the global satisfaction ratings” value ([1]; 650 mg q4h group) of the same compound?
Answer: efficacious

Question: And the “Subject Global Assessment, level of satisfaction with the study treatments, difference versus control group” value ([1]; 650 mg q6h group (so in the source) versus standard of care control)?
Answer: no statistically significant differences

Question: What about the “Subject Global Assessment, level … mean rating” value ([1]; 1 g q6h IV, day 4, scale 0-3, control 2.2, p=0.0744) of the same compound?
Answer: 2.5

Question: What about the “Subject Global Assessment, level … mean rating” value ([1]; 1 g q6h IV, day 5 24 h lookback, scale 0-3, control 2.0, p=0.0062) of the same compound?
Answer: 2.4

Question: And the “Subject Global Assessment, level … mean rating” value ([1]; 1 g q6h IV, end of day 5 prior to discharge 24 h lookback, scale 0-3, control 2.0, p=0.0073)?
Answer: 2.5

Question: What about the “Efficacy conclusion based upon the global satisfaction ratings” value ([1]; 1 g q6h group) of the same compound?
Answer: efficacious

Question: What about the “Subject Global Assessment, level of satisfaction with the study treatments, difference versus control group” value ([1]; 1 g q6h group versus standard of care control) of the same compound?
Answer: no statistically significant differences

Question: And the “Subject Global Assessments (study treatments or side effects), difference between the two active treatment groups” value ([1]; 1 g q6h versus 650 mg q4h, daily 24 h lookback day 2 to end of day 5)?
Answer: no statistically significant differences

Question: And the Tolerability ([2]; 650 mg dose group (q4h))?
Answer: well tolerated

Question: And the Tolerability ([2]; 1000 mg dose group (q6h))?
Answer: well tolerated

Question: And the “Frequency of liver enzyme elevations seen in the treatment groups” value ([2]; between treatment groups, includes alanine aminotransferase and aspartate aminotransferase)?
Answer: comparable

Question: And the “Frequency of serious, severe, related, or overall treatment emergent adverse events (TEAEs), difference between the treatment groups” value ([2]; q6 (1 g), q4 (650 mg) and standard of care control groups)?
Answer: no clinically relevant differences

Reference: patent US10383834B2, “Reduced dose intravenous acetaminophen” (MALLINCKRODT HOSPITAL PRODUCTS IP LIMITED, priority 2007, dated 2019)
